# Like-named read-outs stand apart in the source and are kept apart here.
# Tests used:
# Experiment in all cases: microbe, parasite or virus in culture
# P. aeruginosa PA01 (Si) = type: cell-based; details: P. aeruginosa PA01 (Si), not typical ESKAPEE strain
# From the text: Supplement 41522_2025_837_MOESM13_ESM.xlsx, sheet "Table_S13_ESKAPEE-MIC" | column: Bacterial MIC (µg/mL)
# P. aeruginosa PA01 = type: cell-based; details: Pseudomonas aeruginosa
# Outline: (§1)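 Broth microdilution MIC in cation-adjusted Mueller-Hinton broth, final inoculum 1 × 10⁵ CFU/mL. Peptides in 0.02% TFA + 0.04% BSA, 2-fold series 0.25 to 128 μg/mL, duplicate, 37 °C for 20 h without agitation. Growth imaged; MIC read visually per CLSI.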
# A. baumannii ATCC 19606 = details: Acinetobacter baumannii
# Outline: as §1
# [1] = tested on: K. pneumoniae ATCC 700603; details: Klebsiella pneumoniae
# Outline: as §1
# E. faecium ATCC 49224 = details: Enterococcus faecium
# Outline: as §1
# S. aureus ATCC 43300 = details: for Bacterial MIC: S. aureus 43300; for MIC: Staphylococcus aureus
# Outline: as §1
# E. coli ATCC 35218 = details: for Bacterial MIC: E. coli 35218; for MIC: Escherichia coli
# Outline: as §1
# S. aureus ATCC 25923 = details: for Bacterial MIC: S. aureus 25923; for MIC: Staphylococcus aureus
# Outline: as §1
# P. aeruginosa MRSN 5519 = details: Pseudomonas aeruginosa
# Outline: as §1
# P. aeruginosa ATCC 27853 = details: Pseudomonas aeruginosa
# Outline: as §1
# E. faecium ATCC 19434 = details: Enterococcus faecium
# Outline: as §1
# K. pneumoniae ATCC 13883 = details: Klebsiella pneumoniae
# Outline: as §1
smiles,measurement,setting,value
"C[C@H]1COc2c(N3CCN(C)CC3)c(F)cc3c(=O)c(C(=O)O)cn1c23 [Levofloxacin, reference compound]",Bacterial MIC,P. aeruginosa PA01 (Si); Week 2 (12/14/2023),8 µg/mL
same,MIC,"P. aeruginosa PA01 (Si); Pseudomonas aeruginosa, Week 1 (12/6/2023), read-out: Bacterial MIC",8 µg/mL
same,MIC,"P. aeruginosa PA01; PA01, 20 h, P. aeruginosa PA01, CAMHB, 1 × 10⁵ CFU/mL, 0.25 to 128 μg/mL, 37 °C 20 h, duplicate, read visually (CLSI), read-out: MIC",8 µg/mL
same,MIC,"P. aeruginosa PA01; PAO1, P. aeruginosa 15692 (PAO1), Historical run 15NOV23, read-out: Bacterial MIC",0.5 µg/mL
same,MIC,"P. aeruginosa PA01; PAO1, P. aeruginosa 15692 (PAO1), Historical run 19APRIL23, read-out: Bacterial MIC",0.5 µg/mL
same,MIC,"P. aeruginosa PA01; PAO1, P. aeruginosa 15692 (PAO1), Historical run 22NOV23, read-out: Bacterial MIC",≤ 0.25 µg/mL
same,MIC,"P. aeruginosa PA01; PAO1, P. aeruginosa 15692 (PAO1), Week 2 (12/14/2023), read-out: Bacterial MIC",≤ 0.25 µg/mL
same,MIC,"A. baumannii ATCC 19606; ATCC19606, 20 h, A. baumannii 19606, CAMHB, 1 × 10⁵ CFU/mL, 0.25 to 128 μg/mL, 37 °C 20 h, duplicate, read visually (CLSI)",0.25 µg/mL
same,MIC,"A. baumannii ATCC 19606; ATCC19606, read-out: Bacterial MIC, A. baumannii 19606, Historical run 15NOV23",0.5 µg/mL
same,MIC,"A. baumannii ATCC 19606; ATCC19606, read-out: Bacterial MIC, A. baumannii 19606, Historical run 19APRIL23",0.5 µg/mL
same,MIC,"A. baumannii ATCC 19606; ATCC19606, read-out: Bacterial MIC, A. baumannii 19606, Historical run 22NOV23",≤ 0.25 µg/mL
same,MIC,"A. baumannii ATCC 19606; ATCC19606, read-out: Bacterial MIC, A. baumannii 19606, Week 1 (12/6/2023)",≤ 0.25 µg/mL
same,MIC,"A. baumannii ATCC 19606; ATCC19606, read-out: Bacterial MIC, A. baumannii 19606, Week 2 (12/14/2023)",≤ 0.25 µg/mL
same,MIC,"[1]; ATCC700603, 20 h, K. pneumoniae 700603, CAMHB, 1 × 10⁵ CFU/mL, 0.25 to 128 μg/mL, 37 °C 20 h, duplicate, read visually (CLSI)",0.5 µg/mL
same,MIC,"[1]; ATCC700603, read-out: Bacterial MIC, K. pneumoniae 700603, Historical run 15NOV23",0.5 µg/mL
same,MIC,"[1]; ATCC700603, read-out: Bacterial MIC, K. pneumoniae 700603, Historical run 19APRIL23",0.5 to 1 µg/mL
same,MIC,"[1]; ATCC700603, read-out: Bacterial MIC, K. pneumoniae 700603, Historical run 22NOV23",≤ 0.25 µg/mL
same,MIC,"[1]; ATCC700603, read-out: Bacterial MIC, K. pneumoniae 700603, Week 1 (12/6/2023)",0.5 µg/mL
same,MIC,"[1]; ATCC700603, read-out: Bacterial MIC, K. pneumoniae 700603, Week 2 (12/14/2023)",0.5 µg/mL
same,MIC,"E. faecium ATCC 49224; ATCC49224, 20 h, E. faecium 49224, CAMHB, 1 × 10⁵ CFU/mL, 0.25 to 128 μg/mL, 37 °C 20 h, duplicate, read visually (CLSI)",2 µg/mL
same,MIC,"E. faecium ATCC 49224; ATCC49224, read-out: Bacterial MIC, E. faecium 49224, Historical run 15NOV23",1 µg/mL
same,MIC,"E. faecium ATCC 49224; ATCC49224, read-out: Bacterial MIC, E. faecium 49224, Historical run 19APRIL23",2 µg/mL
same,MIC,"E. faecium ATCC 49224; ATCC49224, read-out: Bacterial MIC, E. faecium 49224, Historical run 22NOV23",1 µg/mL
same,MIC,"E. faecium ATCC 49224; ATCC49224, read-out: Bacterial MIC, E. faecium 49224, Week 1 (12/6/2023)",2 µg/mL
same,MIC,"E. faecium ATCC 49224; ATCC49224, read-out: Bacterial MIC, E. faecium 49224, Week 2 (12/14/2023)",2 µg/mL
same,Bacterial MIC,S. aureus ATCC 43300; Historical run 15NOV23,<= 0.250 µg/mL
same,Bacterial MIC,S. aureus ATCC 43300; Historical run 19APRIL23,<= 0.250 µg/mL
same,Bacterial MIC,S. aureus ATCC 43300; Historical run 22NOV23,<= 0.250 µg/mL
same,Bacterial MIC,S. aureus ATCC 43300; Week 2 (12/14/2023),<= 0.250 µg/mL
same,MIC,"S. aureus ATCC 43300; ATCC43300, 20 h",0.25 µg/mL
same,MIC,"S. aureus ATCC 43300; ATCC43300, read-out: Bacterial MIC",≤ 0.25 µg/mL
same,Bacterial MIC,E. coli ATCC 35218; Historical run 15NOV23,<= 0.250 µg/mL
same,Bacterial MIC,E. coli ATCC 35218; Historical run 19APRIL23,<= 0.250 µg/mL
same,Bacterial MIC,E. coli ATCC 35218; Historical run 22NOV23,<= 0.250 µg/mL
same,Bacterial MIC,E. coli ATCC 35218; Week 2 (12/14/2023),<= 0.250 µg/mL
same,MIC,"E. coli ATCC 35218; ATCC35218, 20 h",0.25 µg/mL
same,MIC,"E. coli ATCC 35218; ATCC35218, read-out: Bacterial MIC",≤ 0.25 µg/mL
same,Bacterial MIC,S. aureus ATCC 25923; Historical run 15NOV23,<= 0.250 µg/mL
same,Bacterial MIC,S. aureus ATCC 25923; Historical run 19APRIL23,<= 0.250 µg/mL
same,Bacterial MIC,S. aureus ATCC 25923; Historical run 22NOV23,<= 0.250 µg/mL
same,Bacterial MIC,S. aureus ATCC 25923; Week 2 (12/14/2023),<= 0.250 µg/mL
same,MIC,"S. aureus ATCC 25923; ATCC25923, 20 h",0.25 µg/mL
same,MIC,"S. aureus ATCC 25923; ATCC25923, read-out: Bacterial MIC",≤ 0.25 µg/mL
same,MIC,"P. aeruginosa MRSN 5519; MRSN5519, 20 h, P. aeruginosa 5519, CAMHB, 1 × 10⁵ CFU/mL, 0.25 to 128 μg/mL, 37 °C 20 h, duplicate, read visually (CLSI)",32 µg/mL
same,MIC,"P. aeruginosa MRSN 5519; MRSN5519, read-out: Bacterial MIC, P. aeruginosa 5519, Historical run 15NOV23",64 µg/mL
same,MIC,"P. aeruginosa MRSN 5519; MRSN5519, read-out: Bacterial MIC, P. aeruginosa 5519, Historical run 19APRIL23",64 µg/mL
same,MIC,"P. aeruginosa MRSN 5519; MRSN5519, read-out: Bacterial MIC, P. aeruginosa 5519, Historical run 22NOV23",32 µg/mL
same,MIC,"P. aeruginosa MRSN 5519; MRSN5519, read-out: Bacterial MIC, P. aeruginosa 5519, Week 1 (12/6/2023)",32 µg/mL
same,MIC,"P. aeruginosa MRSN 5519; MRSN5519, read-out: Bacterial MIC, P. aeruginosa 5519, Week 2 (12/14/2023)",32 µg/mL
same,MIC,"P. aeruginosa ATCC 27853; ATCC27853, 20 h, P. aeruginosa 27853, CAMHB, 1 × 10⁵ CFU/mL, 0.25 to 128 μg/mL, 37 °C 20 h, duplicate, read visually (CLSI)",0.5 µg/mL
same,MIC,"P. aeruginosa ATCC 27853; ATCC27853, read-out: Bacterial MIC, P. aeruginosa 27853, Historical run 15NOV23",1 µg/mL
same,MIC,"P. aeruginosa ATCC 27853; ATCC27853, read-out: Bacterial MIC, P. aeruginosa 27853, Historical run 19APRIL23",1 µg/mL
same,MIC,"P. aeruginosa ATCC 27853; ATCC27853, read-out: Bacterial MIC, P. aeruginosa 27853, Historical run 22NOV23",0.5 µg/mL
same,MIC,"P. aeruginosa ATCC 27853; ATCC27853, read-out: Bacterial MIC, P. aeruginosa 27853, Week 1 (12/6/2023)",0.5 µg/mL
same,MIC,"P. aeruginosa ATCC 27853; ATCC27853, read-out: Bacterial MIC, P. aeruginosa 27853, Week 2 (12/14/2023)",0.5 µg/mL
same,MIC,"E. faecium ATCC 19434; ATCC19434, 20 h, E. faecium 19434, CAMHB, 1 × 10⁵ CFU/mL, 0.25 to 128 μg/mL, 37 °C 20 h, duplicate, read visually (CLSI)",4 µg/mL
same,MIC,"E. faecium ATCC 19434; ATCC19434, read-out: Bacterial MIC, E. faecium 19434, Historical run 15NOV23",4 µg/mL
same,MIC,"E. faecium ATCC 19434; ATCC19434, read-out: Bacterial MIC, E. faecium 19434, Historical run 19APRIL23",4 µg/mL
same,MIC,"E. faecium ATCC 19434; ATCC19434, read-out: Bacterial MIC, E. faecium 19434, Historical run 22NOV23",2 µg/mL
same,MIC,"E. faecium ATCC 19434; ATCC19434, read-out: Bacterial MIC, E. faecium 19434, Week 1 (12/6/2023)",4 µg/mL
same,MIC,"E. faecium ATCC 19434; ATCC19434, read-out: Bacterial MIC, E. faecium 19434, Week 2 (12/14/2023)",4 to 8 µg/mL
same,MIC,"K. pneumoniae ATCC 13883; ATCC13883, 20 h, K. pneumoniae 13883, CAMHB, 1 × 10⁵ CFU/mL, 0.25 to 128 μg/mL, 37 °C 20 h, duplicate, read visually (CLSI)",0.25 µg/mL
same,MIC,"K. pneumoniae ATCC 13883; ATCC13883, read-out: Bacterial MIC, K. pneumoniae 13883, Historical run 15NOV23",≤ 0.25 µg/mL
same,MIC,"K. pneumoniae ATCC 13883; ATCC13883, read-out: Bacterial MIC, K. pneumoniae 13883, Historical run 19APRIL23",0.25 to 0.5 µg/mL
same,MIC,"K. pneumoniae ATCC 13883; ATCC13883, read-out: Bacterial MIC, K. pneumoniae 13883, Historical run 22NOV23",≤ 0.25 µg/mL
same,MIC,"K. pneumoniae ATCC 13883; ATCC13883, read-out: Bacterial MIC, K. pneumoniae 13883, Week 1 (12/6/2023)",≤ 0.25 µg/mL
same,MIC,"K. pneumoniae ATCC 13883; ATCC13883, read-out: Bacterial MIC, K. pneumoniae 13883, Week 2 (12/14/2023)",≤ 0.25 µg/mL

# Source: publication PMC12635268, “Novel antimicrobial peptides and peptide-microbiome crosstalk in Appalachian salamander skin” (NPJ Biofilms and Microbiomes, 2025)
